Measured values published in ChEMBL document CHEMBL1150739, “Plant antitumor agents, 26. Isolation, structure, and antitumor activity of alkaloids from Anopterus glandulosus” (1987).
Values after ≈ are worked out from the molar mass of the structure shown.

Key:
Format in all cases: functional
P388 [1] = assay: In vivo antitumor activity against mouse P388 cells at 1.5 mg/kg relative to control
KB = assay: Cytotoxicity against human KB cells; conditions: read-out: ED50 (the source's name)
P388 [2] = assay: In vivo antitumor activity against mouse P388 cells at 13 mg/kg relative to control
P388 [3] = assay: In vivo antitumor activity against mouse P388 cells at 6 mg/kg relative to control
P388 [4] = assay: In vivo antitumor activity against mouse P388 cells at 4.4 mg/kg relative to control
P388 [5] = assay: In vivo antitumor activity against mouse P388 cells at 3.5 mg/kg relative to control

Structure (SMILES)	EC50 (KB) [µg/mL]	also measured
C=C1C[C@]23[C@H]4[C@H]1[C@@H](OC(=O)/C(C)=C/C)[C@@H](OC(=O)c1ccccc1)[C@H]2[C@@]12C[C@@H](O)C[C@@](C)(CN(C)[C@H]41)[C@@]2(O)[C@@H](O)[C@@H]3O	0.001 (≈ 0.00173 µM)	T/C (P388 [1]): 125%
C=C1C[C@@]23C[C@H](O)[C@]4(O)[C@@]5(C)C[C@H](O)C[C@@]46[C@@H]2[C@H](OC(=O)/C(C)=C/C)[C@H](OC(=O)/C(C)=C/C)[C@@H]1[C@H]3[C@H]6N(C)C5 [ANOPTERINE]	0.05 (≈ 0.0923 µM)	T/C (P388 [2]): 122%
C=C1C[C@@]23C[C@H](O)[C@]4(O)[C@@]5(C)C[C@H](O)C[C@@]46[C@@H]2[C@H](O)[C@H](OC(=O)/C(C)=C/C)[C@@H]1[C@H]3[C@H]6N(C)C5	1 (≈ 2.18 µM)	T/C (P388 [3]): 127%
C=C1C[C@]23[C@H]4[C@H]1[C@@H](OC(=O)/C(C)=C/C)[C@@H](OC(=O)/C(C)=C/C)[C@H]2[C@@]12C[C@@H](O)C[C@@](C)(CN(C)[C@H]41)[C@@]2(O)[C@@H](O)[C@@H]3O	0.001 (≈ 0.00179 µM)	T/C (P388 [4]): 140%
C=C1C[C@]23[C@H]4[C@H]1[C@@H](OC(=O)/C(C)=C/C)[C@@H](OC(=O)/C(C)=C/CO)[C@H]2[C@@]12C[C@@H](O)C[C@@](C)(CN(C)[C@H]41)[C@@]2(O)[C@@H](O)[C@@H]3O	0.05 (≈ 0.0872 µM)	T/C (P388 [5]): 120%
